Series [1] concerns LN229 cells. Briefly: Clonogenic survival assay. It counts as cell-based, human. As to conditions: treated 24 h in serum-free medium. The protocol:
(§1) Cells were seeded the day before treatment. The inventors treated the cells in the indicated concentrations in serum-free medium for 24 h after which they changed the medium back to medium containing FCS, followed by a 7 to 21 day incubation time. The inventors used crystal violet (0.5% w/v) to stain colonies and analyzed the area coverage using the ImageJ software Plugln ColonyArea. Measurements were normalized to respective vehicle control wells.

Series [2] has as its system LNZ308 cells. Briefly: Clonogenic survival assay. The class given is cell-based, human. As to conditions: treated 24 h in serum-free medium. The protocol:
as §1

Series [3] has as its system LN229-GFP cells. Put plainly: Zebrafish embryo xenotransplant, tumor area. It counts as in vivo, wildtype zebrafish embryos. The following applies: monotherapy, 48 h of treatment; not significant as compared to the DMSO control. How it is done:
The inventors used zebrafish wildtype (wt) TE embryos younger than 5 days post-fertilization (dpf). […] Labelled cells were suspended in PBS at 2*10^5 cells/µL and approx. 1 nL cell suspension was injected into the midbrain region of 24 hpf embryos. The inventors incubated the embryos at 28°C for 1 h and afterwards divided them into treatment groups. Only successfully transplanted embryos were used for further experiments. Then, the inventors applied the treatments as indicated in the respective figures and incubated that for 48 h at 35°C. For evaluation of tumor size, they imaged embryos on a Nikon Stereomicroscope (SMZ18) with the NIS Element software. The inventors assessed the tumor surface areas using Imaris (version 9.2.0).

For series [4] the following is noted: after continuous dosing; cited from earlier work.
Series [5] has as its system primary cultures (TUE-PC1-6). Put plainly: Viability of patient-derived primary cultures. The class given is cell-based. The following applies: six primary cultures (TUE-PC1-6), 72 h. The source says:
Primary tumor tissue was obtained from fresh residual material upon resection at the Department of Neurosurgery, University Hospital Tübingen. The inventors cut the tissue in small pieces, washed it using Hanks Balanced Salt Solution (HBSS) (Gibco, Carlsbad, CA, US) and digested it by collagenase and dispase (Roche, Basel, CH). To remove any remaining erythrocytes, they used red blood cell lysis buffer (Sigma Aldrich, St. Louis, MO, US). The inventors then cultured the cells as GS cells in Neurobasal®-A medium. They first evaluated AZD6738 sensitivity of each primary culture and selected two concentrations. […] To evaluate combination treatment analyses, the inventors leveraged the Bliss independence Criterion.
The inventors seeded 5,000 or 10,000 cells, respectively, on day one, treated the next day in serum-free medium and incubated for up to 72 h. Subsequently, they measured cell viability using CellTiterBlue reagent (Promega, Madison, WI, US) according to manufacturer's instructions with a GloMax (Promega, Madison, Wl, US). The inventors normalized measurements to untreated cells.

The test system of series [6] is SMA560 glioma cells. Briefly: Syngeneic glioma mouse model (survival). It counts as in vivo, VM/Dk mice. The following applies: 50 mg/kg bodyweight via oral gavage, five days on, two days treatment holiday; survival = time until the onset of neurological symptoms; vehicle control 14 days. The source says:
All animal experiments were approved by the regional council Tübingen and conducted in accordance with animal law. Animals used in this study are kept and bred in the animal facility of the institute. They are regularly analyzed for infectious diseases. The inventors injected 5000 SMA560 glioma cells into the right striatum of VM/Dk mice (male and female). On day 5 post surgery, they randomized mice into treatment and control arm. The inventors administered AZD6738 (celasertib, Selleckchem, Houston, TX, US) at 50 mg/kg bodyweight or vehicle control via oral gavage for five days followed by two days of treatment holiday. Animals were closely monitored as shown in the scoring sheets. The endpoint of the experiment was according to the animal law "the time until the onset of neurological symptoms", in the text designated as "survival".

Series [7] concerns LN229 cells. Briefly: Cell cycle analysis (propidium iodide flow cytometry). It counts as cell-based, human. As to conditions: LN229, 72 h. How it is done: (§2) The inventors seeded the cells on day one and treated them on the next day. After 72 h, they detached the cells and stained them with propidium iodide solution (50 µg/mL propidium iodide (Thermo Fisher Scientific, Waltham, MA, US), 0.2% Triton X-100 (Roth, Karlsruhe, Germany), 100 µg RNase (Thermo Fisher Scientific, Waltham, MA, US), 1 g/L glucose in PBS (phosphate buffered saline) (Gibco, Carlsbad, CA, US). Flow cytometry was done using a MACSQuant Analyzer 10 (Miltenyi Biotec, Bergisch Gladbach, Germany). The inventors analyzed the acquired data with the FlowJo software (Beckton, Dickinson & Company, Franklin Lakes, NJ, US).

Series [8] relates to LNZ308 cells. The series is described as above. It counts as cell-based, human. As to conditions: LNZ308, 72 h. How it is done:
as §2

The test system of series [9] is human and murine cell lines. Put plainly: Anti-glioma activity in vitro (Figure 1 b). It counts as cell-based. How it is done: as §1, with “The inventors seeded 5,000 or 10,000 cells, respectively, on day one, treated the next day in serum-free medium and incubated for up to 72 h. Subsequently, they measured cell viability using CellTiterBlue reagent (Promega, Madison, WI, US) according to manufacturer's instructions with a GloMax (Promega, Madison, Wl, US). The inventors normalized measurements to untreated cells. Cells” for “Cells”

With `C[C@@H]1COCCN1c1cc(C2([S@](C)(=N)=O)CC2)nc(-c2cc[nH]c3nccc2-3)n1` [AZD6738, ceralasertib], the clonogenic survival result in series [1] and in series [2] was “dose-dependent reduction” each time. Also, the tumor area entry in series [3] is given as “modest decrease”. Besides, the adverse events result in series [4] is listed as “bone marrow suppression”. The cell viability entry in series [5] is “dose-dependent reduction”. This compound also had a median survival in series [6] of 21 days. Also, the cell cycle alterations result in series [7] is on record as “accumulation in S phase”; in series [8] it was “accumulation of LNZ308 cells in G2-M phase”. Besides, in [9], the “anti-glioma activity in vitro” value is reported as “significant anti-glioma activity”.

Source of the values: patent EP4473972A1, “COMBINATIONS COMPRISING AN ATR INHIBITOR WITH SYNERGISTIC EFFECT AGAINST GLIOMAS” (Eberhard-Karls-Universität Tübingen, priority 2023, dated 2024).
